Results on one molecule are retold here after US5753648A, “Tricyclic benzazepine vasopressin antagonists” (American Cyanamid Company, priority 1996, dated 1998).

In test [1] the target is T1, Vasopressin V1 receptor subtype in Human Platelet Membranes (Homo sapiens, UniProt P37288).
T1 construct: Frozen platelet rich plasma (PRP), received from the Hudson Valley Blood Services, are thawed to room temperature; tissue Hudson Valley Blood Services; host or cells: human platelets (platelet rich plasma)
As to the kind of experiment: Binding to Vasopressin V1 receptor subtype in Human Platelet Membranes. The note with it: * V1 receptor subtype in human platelet. The protocol: Radioligand Binding Experiments with Human Platelet Membranes
Platelet Source: Hudson Valley Blood Services,
Westchester Medical Center, Valhalla, N.Y.
Platelet Membrane Preparation
Frozen platelet rich plasma (PRP), received from the Hudson Valley Blood Services, are thawed to room temperature. The tubes containing the PRP are centrifuged at 16,000×g for 10 min. at 4° C. and the supernatant fluid discarded. The platelets resuspended in an equal volume of 50.0 mM Tris.HCl, pH 7.5 containing 120 mM NaCl and 20.0 mM EDTA. The suspension is recentrifuged at 16,000×g for 10 min. This washing step is repeated one more time. The wash discarded and the lysed pellets homogenized in low ionic strength buffer of Tris.HCl, 5.0 mM, pH 7.5 containing 5.0 mM EDTA. The homogenate is centrifuged at 39,000×g for 10 min. The resulting pellet is resuspended in Tris.HCl buffer, 70.0 mM, pH 7.5 and recentrifuged at 39,000×g for 10 min. The final pellet is resuspended in 50.0 mM Tris.HCl buffer pH 7.4 containing 120 mM NaCl and 5.0 mM KCl to give 1.0-2.0 mg protein per ml of suspension.
Binding to Vasopressin V1 receptor subtype in Human Platelet Membranes
In wells of 96 well format microtiter plate, add 100 μl of 50.0 mM Tris.HCl buffer containing 0.2% BSA and a mixture of protease inhibitors (aprotinin, leupeptin etc.). Then add 20 μl of [^3 H]Ligand (Manning or Arg^8 Vasopressin), to give final concentrations ranging from 0.01 to 10.0 nM. Initiate the binding by adding 80.0 μl of platelet suspension (approx. 100 μg protein). Mix all reagents by pipetting the mixture up and down a few times. Non specific binding is measured in the presence of 1.0 μM of unlabeled ligand (Manning or Arg^8 Vasopressin). Let the mixture stand undisturbed at room temperature for ninety (90) min. Upon this time, rapidly filter off the incubate under vacuum suction over GF/B filters, using a Brandel® Harvester. Determine the radioactivity caught on the filter disks by the addition of liquid scintillant and counting in a liquid scintillator.

Test [2] has as its target T2, Rat Kidney Medullary V2 Receptors (Rattus norvegicus, UniProt Q00788).
T2 construct: Medullary tissues from rat kidneys are dissected out; from tissue; host or cells: rat kidney medulla membranes
As to the kind of experiment: biochemical. It counts as binding.

For orientation: IC50 means the concentration that inhibits the measured activity by half. A high value points to weaker potency.

T1 sequence (P37288 whole entry): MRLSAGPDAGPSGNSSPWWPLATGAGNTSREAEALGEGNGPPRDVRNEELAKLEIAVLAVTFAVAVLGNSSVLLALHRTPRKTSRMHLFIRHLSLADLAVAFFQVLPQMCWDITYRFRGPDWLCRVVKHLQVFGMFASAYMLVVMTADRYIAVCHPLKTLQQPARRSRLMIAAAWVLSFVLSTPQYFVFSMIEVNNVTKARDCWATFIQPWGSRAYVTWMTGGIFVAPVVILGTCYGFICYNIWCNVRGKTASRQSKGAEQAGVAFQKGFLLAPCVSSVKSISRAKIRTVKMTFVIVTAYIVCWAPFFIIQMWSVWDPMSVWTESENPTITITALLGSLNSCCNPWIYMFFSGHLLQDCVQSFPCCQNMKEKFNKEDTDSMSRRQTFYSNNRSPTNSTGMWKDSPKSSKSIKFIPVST
T2 sequence (Q00788 whole entry): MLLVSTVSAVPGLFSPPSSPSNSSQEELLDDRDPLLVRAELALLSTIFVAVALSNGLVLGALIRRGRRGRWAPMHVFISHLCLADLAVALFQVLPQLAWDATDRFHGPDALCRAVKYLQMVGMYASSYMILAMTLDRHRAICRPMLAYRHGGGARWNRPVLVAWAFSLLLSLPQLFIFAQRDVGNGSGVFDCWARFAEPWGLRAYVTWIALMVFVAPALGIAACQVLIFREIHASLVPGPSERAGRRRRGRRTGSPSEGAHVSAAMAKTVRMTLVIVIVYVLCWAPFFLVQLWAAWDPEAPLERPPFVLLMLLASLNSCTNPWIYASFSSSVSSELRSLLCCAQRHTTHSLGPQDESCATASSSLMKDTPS

For `Cc1ccc(F)cc1C(=O)Nc1ccc(C(=O)N2Cc3cccn3Cc3ccccc32)cn1` [Example 1, N-[5-(5H-Pyrrolo[2,1-c][1,4]benzodiazetin-10(11H)-ylcarbonyl)-2-pyridinyl]-5-fluoro-2-methylbenzamide], the IC50 is 20 nM in test [1] and 4 nM in test [2].
